Test results as given in patent US6914045B2, “Glycopeptide antibiotics” (Wyeth Holdings Corporation, priority 2001, dated 2005).
Converted amounts (≈) assume the structure as drawn.

How the values were obtained:
Experiment in all cases: in vitro antibacterial evaluation, MIC by broth dilution
Assay type in all cases: cell-based
Escherichia coli = conditions: 18 hours at 35° C.
Enterococcus sp. = conditions: broth dilution, 18 hours at 35° C.
Summary of the method: (§1)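 MIC = lowest antibiotic concentration preventing visible growth; inoculum 5×10^5 CFU/mL; drug range 64-0.06 μg/mL; Muller-Hinton II […]; NCCLS M7-A2 guidance.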

Streptococcus sp. = conditions: broth dilution, 18 hours at 35° C.
Summary of the method: as §1

Staphylococcus sp. = conditions: broth dilution, 18 hours at 35° C.
Summary of the method: as §1

MIC Escherichia coli (ATCC 25922) (Escherichia coli): 32 µg/mL (≈ 22.8 µM)
MIC Escherichia coli (GC 4559) (Escherichia coli): 32 µg/mL (≈ 22.8 µM)
MIC Escherichia coli (GC 4560) (Escherichia coli): 1 µg/mL (≈ 0.713 µM)
MIC Enterococcus avium (GC 4558) (Enterococcus sp.): 2 µg/mL (≈ 1.43 µM)
MIC Enterococcus faecalis (ATCC 29212) (Enterococcus sp.): 1 µg/mL (≈ 0.713 µM)
MIC Enterococcus faecalis (GC 2242) (Enterococcus sp.): 2 µg/mL (≈ 1.43 µM)
MIC Enterococcus faecalis (GC 2691) (Enterococcus sp.): 2 µg/mL (≈ 1.43 µM)
MIC Enterococcus faecalis (GC 3059) (Enterococcus sp.): 1 µg/mL (≈ 0.713 µM)
MIC Enterococcus faecalis (GC 4552) (Enterococcus sp.): 2 µg/mL (≈ 1.43 µM)
MIC Enterococcus faecalis (GC 4553) (Enterococcus sp.): 2 µg/mL (≈ 1.43 µM)
MIC Enterococcus faecalis (GC 4554) (Enterococcus sp.): 2 µg/mL (≈ 1.43 µM)
MIC Enterococcus faecalis (GC 6189) (Enterococcus sp.): 1 µg/mL (≈ 0.713 µM)
MIC Enterococcus faecium (GC 2243) (Enterococcus sp.): 2 µg/mL (≈ 1.43 µM)
MIC Enterococcus faecium (GC 4556) (Enterococcus sp.): 1 µg/mL (≈ 0.713 µM)
MIC Enterococcus faecium (GC 4557) (Enterococcus sp.): 2 µg/mL (≈ 1.43 µM)
MIC Enterococcus faecalis (ATCC 29212) (Enterococcus sp.; inoculum 5×10^5 CFU/mL, strain ATCC 29212): 1 µg/mL (≈ 0.713 µM)
MIC Enterococcus faecalis (GC 2242) (Enterococcus sp.; inoculum 5×10^5 CFU/mL, strain GC 2242): 2 µg/mL (≈ 1.43 µM)
MIC Enterococcus faecium (GC 2243) (Enterococcus sp.; inoculum 5×10^5 CFU/mL, strain GC 2243): 2 µg/mL (≈ 1.43 µM)
MIC Enterococcus faecalis (GC 2691) (Enterococcus sp.; inoculum 5×10^5 CFU/mL, strain GC 2691): 2 µg/mL (≈ 1.43 µM)
MIC Enterococcus faecalis (GC 3059) (Enterococcus sp.; inoculum 5×10^5 CFU/mL, strain GC 3059): 1 µg/mL (≈ 0.713 µM)
MIC Enterococcus faecalis (GC 4552) (Enterococcus sp.; inoculum 5×10^5 CFU/mL, strain GC 4552): 2 µg/mL (≈ 1.43 µM)
MIC Enterococcus faecalis (GC 4553) (Enterococcus sp.; inoculum 5×10^5 CFU/mL, strain GC 4553): 2 µg/mL (≈ 1.43 µM)
MIC Enterococcus faecalis (GC 4554) (Enterococcus sp.; inoculum 5×10^5 CFU/mL, strain GC 4554): 2 µg/mL (≈ 1.43 µM)
MIC Enterococcus faecium (GC 4556) (Enterococcus sp.; inoculum 5×10^5 CFU/mL, strain GC 4556): 1 µg/mL (≈ 0.713 µM)
MIC Enterococcus faecium (GC 4557) (Enterococcus sp.; inoculum 5×10^5 CFU/mL, strain GC 4557): 2 µg/mL (≈ 1.43 µM)
MIC Enterococcus avium (GC 4558) (Enterococcus sp.; inoculum 5×10^5 CFU/mL, strain GC 4558): 2 µg/mL (≈ 1.43 µM)
MIC Enterococcus faecalis (GC 6189) (Enterococcus sp.; inoculum 5×10^5 CFU/mL, strain GC 6189): 1 µg/mL (≈ 0.713 µM)
MIC Streptococcus agalactiae (GC 4564) (Streptococcus sp.): 0.25 µg/mL (≈ 0.178 µM)
MIC Streptococcus pneumoniae (ATCC 6301) (Streptococcus sp.): <0.12 µg/mL
MIC Streptococcus pneumoniae (GC 1894) (Streptococcus sp.): <0.12 µg/mL
MIC Streptococcus pneumoniae (GC 4565) (Streptococcus sp.): <0.12 µg/mL
MIC Streptococcus pyogenes (GC 4563) (Streptococcus sp.): 1 µg/mL (≈ 0.713 µM)
MIC Streptococcus pneumoniae (ATCC 6301) (Streptococcus sp.; inoculum 5×10^5 CFU/mL, strain ATCC 6301): <0.12 µg/mL
MIC Streptococcus pneumoniae (GC 1894) (Streptococcus sp.; inoculum 5×10^5 CFU/mL, strain GC 1894): <0.12 µg/mL
MIC Streptococcus pyogenes (GC 4563) (Streptococcus sp.; inoculum 5×10^5 CFU/mL, strain GC 4563): 1 µg/mL (≈ 0.713 µM)
MIC Streptococcus agalactiae (GC 4564) (Streptococcus sp.; inoculum 5×10^5 CFU/mL, strain GC 4564): 0.25 µg/mL (≈ 0.178 µM)
MIC Streptococcus pneumoniae (GC 4565) (Streptococcus sp.; inoculum 5×10^5 CFU/mL, strain GC 4565): <0.12 µg/mL
MIC Staphylococcus aureus (ATCC 29213) (Staphylococcus sp.; strain ATCC 29213): 1 µg/mL (≈ 0.713 µM)
MIC Staphylococcus aureus (GC 1131) (Staphylococcus sp.; strain GC 1131): 1 µg/mL (≈ 0.713 µM)
MIC Staphylococcus aureus (GC 3051) (Staphylococcus sp.; strain GC 3051): 1 µg/mL (≈ 0.713 µM)
MIC Staphylococcus aureus (GC 3053) (Staphylococcus sp.; strain GC 3053): 1 µg/mL (≈ 0.713 µM)
MIC Staphylococcus aureus (GC 4541) (Staphylococcus sp.; strain GC 4541): 1 µg/mL (≈ 0.713 µM)
MIC Staphylococcus aureus (GC 4542) (Staphylococcus sp.; strain GC 4542): 1 µg/mL (≈ 0.713 µM)
MIC Staphylococcus aureus-SMITH (GC 4543) (Staphylococcus sp.; strain GC 4543): 1 µg/mL (≈ 0.713 µM)
MIC Staphylococcus aureus (GC 4544) (Staphylococcus sp.; strain GC 4544): 1 µg/mL (≈ 0.713 µM)
MIC Staphylococcus aureus (GC 4545) (Staphylococcus sp.; strain GC 4545): 1 µg/mL (≈ 0.713 µM)
MIC Coagulase Negative Staphylococcus (GC 4547) (Staphylococcus sp.; strain GC 4547): 1 µg/mL (≈ 0.713 µM)
MIC Coagulase Negative Staphylococcus (GC 4548) (Staphylococcus sp.; strain GC 4548): 0.5 µg/mL (≈ 0.356 µM)
MIC Coagulase Negative Staphylococcus (GC 4549) (Staphylococcus sp.; strain GC 4549): 0.5 µg/mL (≈ 0.356 µM)
MIC Coagulase Negative Staphylococcus (GC 4551) (Staphylococcus sp.; strain GC 4551): 1 µg/mL (≈ 0.713 µM)
SMILES: CC(c1ccccc1)C1NC(=O)CNC(=O)C(CO)NC(=O)C(C(O)C2CNC(=N)N2C2OC(CO)C(O)C(O)C2O)NC(=O)C(C(O)C2CNC(=N)N2)NC(=O)C(Cc2ccc(OC3OC(CO)C(OC4OC5COC6(OC5C(O)C4O)C(C)CCCC6C)C(O)C3O)cc2)NC1=O (stereo not drawn) [Example 206]
MIC Staphylococcus haemolyticus (GC 4546) (Staphylococcus sp.; strain GC 4546): 0.5 µg/mL (≈ 0.356 µM)
